The source of these data is patent publication US20240139170A1, “TOPICAL FORMULATIONS OF A JAK 1/3 INHIBITOR AND METHODS OF USE THEREOF FOR TREATMENT OF ATOPIC DERMATITIS AND OTHER SKIN CONDITIONS” (ACLARIS THERAPEUTICS, INC., priority 2021, published 2024).

The conditions of this data set: in vivo.

Turning to `CCOC(=O)c1cnc2[nH]ccc2c1N[C@@H]1CCCN(C(=O)CC#N)C1` [Compound I, ethyl (R)-4-((1-(2-cyanoacetyl)piperidin-3-yl)amino)-1H-pyrrolo[2,3-b]pyridine-5-carboxylate], the Severe adverse events result is “Two unrelated severe events (AF and elevated CPK)”; the Thrombosis result is given as “no reports of thrombosis”; the Tolerability result is on record as “generally well tolerated”. Further, where the note is “human”, the “Application site irritation: patients with at least one event” value is on record as 0, the “Oropharyngeal pain: patients with at least one event” value stood at 0, the “Pharyngitis streptococcal: patients with at least one event” value is reported as 0 and the “Rash: patients with at least one event” value is 0. Moreover, where the note is “human”, the “SARS-CoV-2 test positive: patients with at least one event” value was 0, the “Sinus congestion: patients with at least one event” value was determined as 0, the “Skin fragility: patients with at least one event” value is 0 and the “Somnolence: patients with at least one event” value was found to be 0. In addition, where the note is “human, 4 weeks”, the “COVID-19: patients with at least one event” value was 0; the “Related TEAE, last figure of the cell (number of events)” value is on record as 1; the “Severe TEAE, last figure of the cell (number of events)” value was found to be 2; the “Subjects reporting AEs” value is 9/23. Further, for the setting “human, 4 weeks”, the “Subjects with at least one SAE” value is on record as 0; the “Subjects with at least one TEAE leading to discontinuation of study drug” value is on record as 0; the “Subjects with at least one TEAE, number (percent)” value is reported as 9 (39.1); the “Subjects with at least one related TEAE, number (percent)” value was 1 (4.3). Further, where the note is “human, 4 weeks”, the “Subjects with at least one severe TEAE, number (percent)” value is listed as 2 (8.7) and the “TEAE, last figure of the cell (number of events, agrees with Table 7)” value amounted to 16.
